The target of assay [1] is HEK-293 cells stably expressing the subunit α5 of the human GABAA receptor, and also the subunits beta2 (short) and gamma2 (long) (Homo sapiens (Human), UniProt P31644). The assay can be described thus: GABAA receptor activity study (membrane potential, FMP marker, FlexStation3). The class given is cell-based. To be noted: 40 min preincubation, then GABA, read-out: alpha5 IC50. The procedure: (§1) The compounds are tested on HEK-293 (Human Embryonic Kidney) cells stably expressing the subunit α5 of the human GABAA receptor, and also the subunits beta2 (short) and gamma2 (long). The cells are maintained in the presence of a selection of three antibiotics—neomycin, zeocin and puromycin—in a Dulbecco medium (DMEM) containing 10% (v/v) foetal bovine serum. On the day before the experiment, the cells are transferred to 96-well plates (in a density of 50,000 cells/well). The cells are then preincubated for 40 minutes with the compounds under test and are treated with GABA. The membrane potential is monitored using a blue FMP marker (Molecular Devices), following the instructions of the manufacturer. The responses are recorded for 120 seconds on a FlexStation3 plate reader (Molecular Devices, USA). The IC50 values of the tested compounds are determined by curve adjustment obtained by non-linear regression using SoftMax Pro software (Molecular Devices, USA).
HEK-293 cells stably expressing the subunit α5 of the human GABAA receptor, and also the subunits beta2 (short) and gamma2 (long) (Homo sapiens (Human), UniProt P31644), sequence (P31644 32-462): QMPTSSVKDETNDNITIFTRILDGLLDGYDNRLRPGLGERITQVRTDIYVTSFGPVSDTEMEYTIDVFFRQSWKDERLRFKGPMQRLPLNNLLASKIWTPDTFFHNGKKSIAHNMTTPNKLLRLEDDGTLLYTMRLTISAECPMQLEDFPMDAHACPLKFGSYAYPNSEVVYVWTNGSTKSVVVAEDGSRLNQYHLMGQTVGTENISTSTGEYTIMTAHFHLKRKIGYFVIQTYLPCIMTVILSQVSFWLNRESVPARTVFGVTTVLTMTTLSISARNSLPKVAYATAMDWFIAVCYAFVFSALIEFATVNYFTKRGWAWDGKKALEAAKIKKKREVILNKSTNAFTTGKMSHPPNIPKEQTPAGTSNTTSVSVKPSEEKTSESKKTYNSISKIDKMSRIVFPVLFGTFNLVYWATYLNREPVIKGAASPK
HEK-293 cells stably expressing the subunit α5 of the human GABAA receptor, and also the subunits beta2 (short) and gamma2 (long) (Homo sapiens (Human), UniProt P31644), sequence (P47870 25-512 partner): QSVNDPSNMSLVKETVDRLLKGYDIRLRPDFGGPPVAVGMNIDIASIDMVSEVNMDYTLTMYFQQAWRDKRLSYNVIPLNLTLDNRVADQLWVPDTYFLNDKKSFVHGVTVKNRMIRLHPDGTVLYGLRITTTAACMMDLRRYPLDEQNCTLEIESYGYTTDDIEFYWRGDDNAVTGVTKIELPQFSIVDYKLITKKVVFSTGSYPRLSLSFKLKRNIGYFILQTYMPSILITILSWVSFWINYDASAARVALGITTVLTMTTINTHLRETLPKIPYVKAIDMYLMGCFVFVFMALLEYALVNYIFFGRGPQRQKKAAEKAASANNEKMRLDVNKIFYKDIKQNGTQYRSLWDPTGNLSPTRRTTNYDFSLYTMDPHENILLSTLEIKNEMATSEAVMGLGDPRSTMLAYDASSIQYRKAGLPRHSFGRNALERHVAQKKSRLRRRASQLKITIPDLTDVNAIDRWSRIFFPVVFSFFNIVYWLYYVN
HEK-293 cells stably expressing the subunit α5 of the human GABAA receptor, and also the subunits beta2 (short) and gamma2 (long) (Homo sapiens (Human), UniProt P31644), sequence (P18507 40-475 partner): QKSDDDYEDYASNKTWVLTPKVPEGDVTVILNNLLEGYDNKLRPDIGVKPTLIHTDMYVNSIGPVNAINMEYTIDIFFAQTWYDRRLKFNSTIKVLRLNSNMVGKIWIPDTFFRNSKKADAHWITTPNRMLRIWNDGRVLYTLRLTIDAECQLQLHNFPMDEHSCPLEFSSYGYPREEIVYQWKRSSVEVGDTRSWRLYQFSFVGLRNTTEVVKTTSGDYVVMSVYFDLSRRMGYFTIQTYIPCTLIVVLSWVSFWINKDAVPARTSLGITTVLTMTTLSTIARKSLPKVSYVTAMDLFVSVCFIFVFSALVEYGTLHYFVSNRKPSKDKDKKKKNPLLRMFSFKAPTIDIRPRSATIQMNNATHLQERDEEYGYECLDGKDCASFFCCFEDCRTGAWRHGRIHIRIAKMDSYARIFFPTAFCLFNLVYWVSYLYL

Assay [2] concerns male NMRI mice. The assay can be described thus: Test for recognition of new objects, in the mouse. Format: in vivo. The following applies: i.p. Here is the method:
This test measures non-spatial working memory in the rodent. It is based on the natural tendency of the animal to spend more time exploring a new object than a familiar object.
On Day 0 (familiarisation phase), male NMRI mice are placed in a black PVC box (32×45×27 cm) without an object, for 2.5 minutes. On the first day the mice are free to explore two identical objects for 3 minutes (acquisition phase). On the second day one of the objects is replaced by a new object and the duration of exploration is timed for each object over a period of 4 minutes (retention phase). Pretreatment with the compounds of the invention is carried out by the i.p. route on the day of the acquisition phase. The duration of exploration is measured by the TSE System software (TSE System GmbH, Bad Homburg, Germany),

The target of assay [3] is HEK-293 cells stably expressing the subunit α5 of the human GABAA receptor, and also the subunits beta2 (short) and gamma2 (long) (Homo sapiens (Human), UniProt P18507+P31644+P47870). The assay can be described thus: GABAA receptor activity study (membrane potential, FMP marker, FlexStation3). Format: cell-based. To be noted: 40 min preincubation, then GABA, read-out: alpha5 IC50. The procedure:
as §1

The test system of assay [4] is rats. The assay can be described thus: Radial maze test in the rat (ketamine-induced memory deficit). The class given is in vivo. To be noted: dose-dependent from 0.3 to 3 mg/kg p.o., ketamine 10 mg/kg i.p., FIG. 4. From the text:
This test is widely used to evaluate working and referential memory in the rodent. The apparatus consists of a small central octagonal platform from which there radiate eight different, equally spaced corridors. At the end of each corridor there is food, which is not visible from the central platform. In the experiment, all the corridors contain a reward and the animal has to visit each of the corridors just once. Each further visit is considered an error.
On the first day of the experiment the rats are deprived of food for 24 hours. Learning starts on the following day. The rats are placed on the central platform of the maze, each of the eight corridors having been provided with food. The animals are free to eat the food in the eight corridors. If a rat has not eaten all of the food within 20 minutes, it is withdrawn from the maze.
The experiments are continued once a day until the animals attain the determined objective, namely obtaining a total number of errors—that is to say, of any further visits to a corridor—of less than 3. These animals are included in the rest of the study. On the last day, the selected rats are treated p.o. with ketamine (10 mg/kg i.p.) co-administered either with a carrier or with a compound of the invention. The tests start 120 minutes after administration. Each test lasts a maximum of 5 minutes.

In assay [5] the test system is male NMRI mice. The assay can be described thus: Occlusion of the middle cerebral artery (MCA) in the mouse. Format: in vivo. To be noted: doses of 1, 3 and 10 mg/kg i.p., 30 minutes after MCA occlusion, FIG. 5. Here is the method:
Permanent focal cerebral ischaemia is produced by electrocoagulation of the left MCA (according to the method of Welsh F A et al., J. Neurochem. 1987, 49, 846-851). Male NMRI mice are anaesthetised using 2,2,2-tribromoethanol (500 mg/kg i.p., 20 ml/kg). An incision is made in the left temporo-parietal region of the head between the orbit and the ear. The temporal muscle is then incised and folded back to expose the skull. A small trepanation hole is drilled in the outer lateral part of the skull just to the level of the MCA, and the trunk of the MCA is then occluded by electrocoagulation.
The compounds of the invention are administered by the i.p. route 30 minutes after occlusion of the MCA. Two days later, the animals are deeply anaesthetised using sodium pentobarbital (60 mg/kg i.p., 10 ml/kg) perfused through the heart with a 4% 2,3,5-triphenyltetrazolium chloride solution. The animals are finally decapitated, and the brains are extracted and placed for at least 24 hours in a saline solution containing 8% formaldehyde. Measurement of the necrosed surface area is determined using an image analysis system (DigiCell for Windows 4.0).

Molecules are shown by their SMILES. pIC50: −log10 of the molar value.

HEK-293 cells stably expressing the subunit α5 of the human GABAA receptor, and also the subunits beta2 (short) and gamma2 (long) (Homo sapiens (Human), UniProt P18507+P31644+P47870), sequence (P31644 32-462): as the sequence (P31644 32-462) above
HEK-293 cells stably expressing the subunit α5 of the human GABAA receptor, and also the subunits beta2 (short) and gamma2 (long) (Homo sapiens (Human), UniProt P18507+P31644+P47870), sequence (P47870 25-512 partner): as the sequence (P47870 25-512 partner) above
HEK-293 cells stably expressing the subunit α5 of the human GABAA receptor, and also the subunits beta2 (short) and gamma2 (long) (Homo sapiens (Human), UniProt P18507+P31644+P47870), sequence (P18507 40-475 partner): as the sequence (P18507 40-475 partner) above

Broadly, the pIC50 is the negative decadic logarithm of the IC50, by convention in mol/L. As for `CC1=NN=C(c2cc3ccc(F)cc3s2)c2cc3oc(=O)[nH]c3cc2C1` [Example 36, 5-(6-fluoro-1-benzothien-2-yl)-8-methyl-1,9-dihydro-2H-[1,3]oxazolo[4,5-h][2,3]benzodiazepin-2-one], the pIC50 in assay [1] was 7.00. Moreover, in assay [2] (dose of 10 mg/kg, FIG. 3), the “procognitive effect in the object recognition model” value (“procognitive effect” below) is “significant precognitive effect”.

In the case of `CC1=NN=C(c2cc3ccccc3s2)c2cc3oc(=O)[nH]c3cc2C1` [Example 6, 5-(1-benzothien-2-yl)-8-methyl-1,9-dihydro-2H-[1,3]oxazolo[4,5-h][2,3]benzodiazepin-2-one], in assay [1], the pIC50 is 6.89.

In the case of `CC1=NN=C(c2ccc3ncccc3c2)c2cc3oc(=O)[nH]c3cc2C1` [Example 5, 8-methyl-5-(6-quinolyl)-1,9-dihydro-2H-[1,3]oxazolo[4,5-h][2,3]-benzodiazepin-2-one], the pIC50 in assay [3] was 6.37.

`CC1=NN=C(c2sc3cccc(C(F)(F)F)c3c2Cl)c2cc3oc(=O)[nH]c3cc2C1` [Example 9, 5-[3-chloro-4-(trifluoromethyl)-1-benzothien-2-yl]-8-methyl-1,9-dihydro-2H-[1,3]oxazolo[4,5-h][2,3]benzodiazepin-2-one]: the pIC50 in assay [1] is 6.60.

As to `CC1=NN=C(c2cc3c(F)cccc3s2)c2cc3oc(=O)[nH]c3cc2C1` [Example 21, 5-(4-fluoro-1-benzothien-2-yl)-8-methyl-1,9-dihydro-2H-[1,3]oxazolo[4,5-h][2,3]benzodiazepin-2-one], the negative logarithm of the IC50 (pIC50) in assay [1] was 6.70. For the same compound, the “procognitive effect” value in assay [2] (doses of 0.01, 0.03 and 0.1 mg/kg, FIG. 1) was “significant procognitive effect”. Besides, the “reversal of ketamine-induced referential memory deficit” value in assay [4] was “significantly reverses the ketamine-induced referential memory deficit”. Moreover, the “inhibition of cerebral damage (necrosed surface area)” value in assay [5] is listed as “significantly inhibits cerebral damage”.

Consider `CC1=NN=C(c2cc3cccc(F)c3s2)c2cc3oc(=O)[nH]c3cc2C1` [Example 40, 5-(7-fluoro-1-benzothien-2-yl)-8-methyl-1,9-dihydro-2H-[1,3]-oxazolo[4,5-h][2,3]benzodiazepin-2-one], for which, in assay [3], the pIC50 was 6.64.

In the case of `CC1=NN=C(c2cc3c(C(F)(F)F)cccc3s2)c2cc3oc(=O)[nH]c3cc2C1` [Example 31, 8-methyl-5-[4-(trifluoromethyl)-1-benzothien-2-yl]-1,9-dihydro-2H-[1,3]oxazolo[4,5-h][2,3]benzodiazepin-2-one], the negative logarithm of the IC50 (pIC50) in assay [1] is 6.30. Also, the “procognitive effect” value in assay [2] (dose of 1 mg/kg, FIG. 2) is recorded as “significant procognitive effect”.

With `CC1=NN=C(c2cc3cc(Cl)ccc3s2)c2cc3oc(=O)[nH]c3cc2C1` [Example 32, 5-(5-chloro-1-benzothien-2-yl)-8-methyl-1,9-dihydro-2H-[1,3]-oxazolo[4,5-h][2,3]benzodiazepin-2-one], the pIC50 in assay [3] was 6.76.
